In data set [1] the target is T1, Cytochrome P450 2C8 (Homo sapiens, UniProt P10632).
T1 sequence (P10632 whole entry): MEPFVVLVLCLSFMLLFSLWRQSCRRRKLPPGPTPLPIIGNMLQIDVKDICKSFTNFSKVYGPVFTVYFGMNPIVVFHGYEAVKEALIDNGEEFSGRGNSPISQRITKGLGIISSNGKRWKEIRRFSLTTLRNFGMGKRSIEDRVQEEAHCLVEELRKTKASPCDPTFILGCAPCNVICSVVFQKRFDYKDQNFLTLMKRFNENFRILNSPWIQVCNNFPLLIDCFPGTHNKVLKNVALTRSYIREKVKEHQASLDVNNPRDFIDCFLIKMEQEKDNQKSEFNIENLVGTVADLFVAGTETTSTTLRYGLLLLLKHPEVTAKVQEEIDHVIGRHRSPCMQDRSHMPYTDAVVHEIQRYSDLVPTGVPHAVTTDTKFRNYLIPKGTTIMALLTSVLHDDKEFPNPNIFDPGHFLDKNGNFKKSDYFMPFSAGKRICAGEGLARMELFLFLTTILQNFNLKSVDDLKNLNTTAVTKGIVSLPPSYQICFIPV
The data set is described as follows: Inhibition of CYP2C8 in human liver microsomes. It counts as ADME. Conditions: human, microsomes; call rule not given here.

Data set [2] in a line: Metabolic stability in human liver microsomes assessed as parent compound remaining at 0.5 uM after 10 mins. Conditions: read-out: Stability. It counts as ADME, Microsome.
Data set [3] is described as follows: Permeability of the compound at pH 5.5 by PAMPA. It counts as ADME. Conditions: read-out: permeability.
Data set [4] deals with T1, Cytochrome P450 2C8. The data set is described as follows: Time-dependant inhibition of CYP2C8 in human liver microsomes. Type of data set: ADME.
The target of data set [5] is T2, Cytochrome P450 2B6 (Homo sapiens, UniProt P20813).
T2 sequence (P20813 whole entry): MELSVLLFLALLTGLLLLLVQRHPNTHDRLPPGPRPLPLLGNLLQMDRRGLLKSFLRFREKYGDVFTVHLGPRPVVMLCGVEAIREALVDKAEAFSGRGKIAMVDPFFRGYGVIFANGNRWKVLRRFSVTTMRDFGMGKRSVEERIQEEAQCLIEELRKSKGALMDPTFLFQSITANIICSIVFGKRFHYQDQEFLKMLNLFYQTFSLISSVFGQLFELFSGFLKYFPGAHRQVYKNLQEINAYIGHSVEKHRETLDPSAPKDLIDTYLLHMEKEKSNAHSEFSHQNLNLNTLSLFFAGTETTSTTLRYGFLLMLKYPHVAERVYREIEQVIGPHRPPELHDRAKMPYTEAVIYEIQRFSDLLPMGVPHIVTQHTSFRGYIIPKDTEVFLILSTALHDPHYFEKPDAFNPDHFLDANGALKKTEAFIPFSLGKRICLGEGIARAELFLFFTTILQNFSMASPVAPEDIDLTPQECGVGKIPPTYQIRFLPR
Nature of the data set: Inhibition of CYP2B6 in human liver microsomes. Type of data set: ADME. Conditions: human, microsomes.

Data set [6] concerns the target T3, Cytochrome P450 2D6 (Homo sapiens, UniProt P10635). Nature of the data set: Time-dependant inhibition of CYP2D6 in human liver microsomes. Type of data set: ADME.
Data set [7] can be described thus: Permeability from apical to basolateral side in human Caco2 cells. It counts as ADME, cell-based. Particulars: Caco-2, read-out: permeability.
Data set [8] can be described thus: Fraction unbound in mouse plasma. Type of data set: ADME, cell-free.
Data set [9] in a line: Permeability of the compound at pH 7.4 by PAMPA. It counts as ADME. Particulars: read-out: permeability.
The target of data set [10] is T4, Sodium channel protein type 9 subunit alpha (Homo sapiens, UniProt Q15858). The data set is described as follows: Inhibition of recombinant human Nav1.7 expressed in HEK293 cells at -70 mV holding potential by patch clamp electrophysiology method. It counts as cell-based.
T4 sequence (Q15858 whole entry): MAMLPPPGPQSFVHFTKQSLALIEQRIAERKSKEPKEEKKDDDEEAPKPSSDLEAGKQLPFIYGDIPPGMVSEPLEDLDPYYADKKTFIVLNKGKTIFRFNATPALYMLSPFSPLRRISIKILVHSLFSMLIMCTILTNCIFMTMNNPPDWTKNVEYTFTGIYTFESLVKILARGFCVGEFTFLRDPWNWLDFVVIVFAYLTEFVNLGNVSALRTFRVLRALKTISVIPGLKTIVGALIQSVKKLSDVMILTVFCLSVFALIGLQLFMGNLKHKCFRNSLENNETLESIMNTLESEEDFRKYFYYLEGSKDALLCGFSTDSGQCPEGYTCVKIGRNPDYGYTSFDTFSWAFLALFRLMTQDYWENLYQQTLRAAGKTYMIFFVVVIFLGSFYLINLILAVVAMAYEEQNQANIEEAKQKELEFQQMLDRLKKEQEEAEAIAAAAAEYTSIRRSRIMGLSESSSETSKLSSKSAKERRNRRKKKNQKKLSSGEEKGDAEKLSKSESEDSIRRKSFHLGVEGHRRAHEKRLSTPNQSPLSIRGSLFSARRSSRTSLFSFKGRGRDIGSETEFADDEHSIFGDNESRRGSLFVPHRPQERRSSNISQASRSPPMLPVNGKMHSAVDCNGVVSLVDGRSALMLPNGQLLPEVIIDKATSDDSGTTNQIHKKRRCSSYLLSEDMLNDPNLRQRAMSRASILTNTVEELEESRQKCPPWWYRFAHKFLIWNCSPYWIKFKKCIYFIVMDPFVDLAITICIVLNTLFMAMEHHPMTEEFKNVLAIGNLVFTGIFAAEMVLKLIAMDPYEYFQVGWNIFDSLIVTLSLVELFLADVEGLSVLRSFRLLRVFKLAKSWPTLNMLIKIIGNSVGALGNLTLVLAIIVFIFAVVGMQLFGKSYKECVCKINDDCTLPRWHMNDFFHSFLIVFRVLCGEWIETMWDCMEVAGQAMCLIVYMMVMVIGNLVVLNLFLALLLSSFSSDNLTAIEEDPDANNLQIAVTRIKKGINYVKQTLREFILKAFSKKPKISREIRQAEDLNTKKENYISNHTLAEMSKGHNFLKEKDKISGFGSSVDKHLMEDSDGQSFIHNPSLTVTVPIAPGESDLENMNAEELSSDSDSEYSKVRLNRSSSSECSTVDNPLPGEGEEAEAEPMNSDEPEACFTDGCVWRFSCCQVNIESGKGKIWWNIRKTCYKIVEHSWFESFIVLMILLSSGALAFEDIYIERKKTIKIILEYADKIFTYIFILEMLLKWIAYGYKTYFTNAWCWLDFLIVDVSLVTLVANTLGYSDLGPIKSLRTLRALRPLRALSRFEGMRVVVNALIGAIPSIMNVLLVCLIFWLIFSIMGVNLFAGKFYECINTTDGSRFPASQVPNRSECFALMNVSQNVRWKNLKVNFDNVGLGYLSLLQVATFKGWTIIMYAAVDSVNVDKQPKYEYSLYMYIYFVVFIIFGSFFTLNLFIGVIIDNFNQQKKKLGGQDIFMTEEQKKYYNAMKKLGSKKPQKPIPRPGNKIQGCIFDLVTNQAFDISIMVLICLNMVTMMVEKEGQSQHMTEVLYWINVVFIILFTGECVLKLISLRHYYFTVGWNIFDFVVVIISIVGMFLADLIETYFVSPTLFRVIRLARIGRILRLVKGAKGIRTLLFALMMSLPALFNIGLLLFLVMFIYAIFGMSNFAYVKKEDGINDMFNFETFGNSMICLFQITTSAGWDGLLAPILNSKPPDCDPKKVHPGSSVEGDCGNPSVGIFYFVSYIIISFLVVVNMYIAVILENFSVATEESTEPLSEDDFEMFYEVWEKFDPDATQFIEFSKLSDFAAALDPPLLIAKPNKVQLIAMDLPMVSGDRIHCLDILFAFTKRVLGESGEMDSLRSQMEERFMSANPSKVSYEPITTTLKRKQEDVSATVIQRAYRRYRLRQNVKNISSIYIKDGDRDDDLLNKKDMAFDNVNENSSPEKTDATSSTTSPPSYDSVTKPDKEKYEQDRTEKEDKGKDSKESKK
In data set [11] the target is T3, Cytochrome P450 2D6. The data set is described as follows: Inhibition of CYP2D6 in human liver microsomes. Conditions: human, microsomes. Type of data set: ADME.
Data set [12] concerns the target T5, Cytochrome P450 3A4 (Homo sapiens, UniProt P08684). The data set is described as follows: Time-dependant inhibition of CYP3A4 in human liver microsomes. Type of data set: ADME.
The target in data set [13] is T6, Cytochrome P450 2C9 (Homo sapiens, UniProt P11712). The data set is described as follows: Inhibition of CYP2C9 in human liver microsomes. It counts as ADME. Conditions: human, microsomes.
T6 sequence (P11712 whole entry): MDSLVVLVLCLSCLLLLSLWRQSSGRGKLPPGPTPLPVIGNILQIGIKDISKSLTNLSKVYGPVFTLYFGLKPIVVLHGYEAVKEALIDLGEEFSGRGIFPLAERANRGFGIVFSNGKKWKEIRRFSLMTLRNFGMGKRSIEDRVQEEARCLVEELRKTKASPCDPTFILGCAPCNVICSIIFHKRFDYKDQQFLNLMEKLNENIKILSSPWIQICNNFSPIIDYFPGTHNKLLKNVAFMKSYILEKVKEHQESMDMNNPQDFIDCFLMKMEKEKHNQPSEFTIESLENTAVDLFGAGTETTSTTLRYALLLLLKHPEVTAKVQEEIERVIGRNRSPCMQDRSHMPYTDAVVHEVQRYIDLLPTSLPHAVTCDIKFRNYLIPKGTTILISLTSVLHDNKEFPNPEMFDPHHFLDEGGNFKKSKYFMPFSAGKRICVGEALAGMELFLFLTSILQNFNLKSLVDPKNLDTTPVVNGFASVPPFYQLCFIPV
Data set [14] in a line: Efflux ratio of permeability in human Caco2 cells. Type of data set: ADME, cell-based. Particulars: Caco-2.
Data set [15] deals with T7, Cytochrome P450 2C19 (Homo sapiens, UniProt P33261). The data set is described as follows: Time-dependant inhibition of CYP2C19 in human liver microsomes. Type of data set: ADME.
T7 sequence (P33261 whole entry): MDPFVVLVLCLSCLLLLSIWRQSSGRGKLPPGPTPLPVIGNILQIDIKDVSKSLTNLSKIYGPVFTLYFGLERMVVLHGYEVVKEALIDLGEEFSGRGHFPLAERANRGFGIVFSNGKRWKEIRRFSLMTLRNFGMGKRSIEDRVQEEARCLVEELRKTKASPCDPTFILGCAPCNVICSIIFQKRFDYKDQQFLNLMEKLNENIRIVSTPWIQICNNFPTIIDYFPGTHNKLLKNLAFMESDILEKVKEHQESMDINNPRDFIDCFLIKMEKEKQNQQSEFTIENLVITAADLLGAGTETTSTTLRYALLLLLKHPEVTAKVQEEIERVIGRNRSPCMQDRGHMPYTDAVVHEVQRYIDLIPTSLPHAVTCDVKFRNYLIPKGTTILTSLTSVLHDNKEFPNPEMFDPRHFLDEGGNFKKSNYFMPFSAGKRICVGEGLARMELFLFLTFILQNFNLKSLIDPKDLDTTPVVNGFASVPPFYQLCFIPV
Data set [16] addresses T6, Cytochrome P450 2C9. The data set is described as follows: Time-dependant inhibition of CYP2C9 in human liver microsomes. Type of data set: ADME.
A short description of data set [17]: Metabolic stability in rat liver microsomes assessed as parent compound remaining at 0.5 uM after 10 mins. Particulars: read-out: Stability. Type of data set: ADME, Microsome.
The nature of data set [18]: Metabolic stability in mouse liver microsomes assessed as parent compound remaining at 0.5 uM after 10 mins. It counts as ADME, Microsome. Conditions: read-out: Stability.
The nature of data set [19]: Permeability from basolateral to apical side in human Caco2 cells. Conditions: Caco-2, read-out: permeability. It counts as ADME, cell-based.
A short description of data set [20]: Fraction unbound in human plasma. Type of data set: ADME, cell-free.
For data set [21], the target named is T2, Cytochrome P450 2B6. Nature of the data set: Time-dependant inhibition of CYP2B6 in human liver microsomes. Type of data set: ADME.
The target of data set [22] is T7, Cytochrome P450 2C19. Nature of the data set: Inhibition of CYP2C19 in human liver microsomes. Type of data set: ADME. Particulars: human, microsomes.
Data set [23] concerns the target T5, Cytochrome P450 3A4. The data set is described as follows: Inhibition of CYP3A4 in human liver microsomes. It counts as ADME. Conditions: human, microsomes.
The target in data set [24] is T4, Sodium channel protein type 9 subunit alpha. Nature of the data set: Inhibition of human Nav1.7 expressed in HEK293 cells after 600 secs at -60 mV holding potential by ion works barracuda population patch clamp method. It counts as cell-based.
For data set [25], the target named is Sodium channel protein type 5 subunit alpha (Homo sapiens, UniProt Q14524). Nature of the data set: Inhibition of human Nav1.5 expressed in HEK293 cells after 600 secs at -50 mV holding potential by ion works barracuda population patch clamp method. Type of data set: cell-based.

The record followed here is ChEMBL document CHEMBL4371076 (J Med Chem, 2019).

T5 sequence (P08684 whole entry): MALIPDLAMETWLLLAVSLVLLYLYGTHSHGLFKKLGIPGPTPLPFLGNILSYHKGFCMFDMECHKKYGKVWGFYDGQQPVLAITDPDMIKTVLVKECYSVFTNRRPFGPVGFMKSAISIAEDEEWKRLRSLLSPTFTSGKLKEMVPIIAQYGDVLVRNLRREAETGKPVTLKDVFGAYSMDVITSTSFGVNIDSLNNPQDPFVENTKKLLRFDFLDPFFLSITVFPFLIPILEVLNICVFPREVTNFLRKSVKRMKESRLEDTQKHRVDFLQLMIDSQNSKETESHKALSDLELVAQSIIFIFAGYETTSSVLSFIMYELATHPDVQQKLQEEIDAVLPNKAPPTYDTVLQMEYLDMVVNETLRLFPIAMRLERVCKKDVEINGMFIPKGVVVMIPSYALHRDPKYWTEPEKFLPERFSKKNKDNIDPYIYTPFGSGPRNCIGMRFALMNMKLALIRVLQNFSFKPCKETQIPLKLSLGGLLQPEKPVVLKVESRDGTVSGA
T3 sequence (P10635 whole entry): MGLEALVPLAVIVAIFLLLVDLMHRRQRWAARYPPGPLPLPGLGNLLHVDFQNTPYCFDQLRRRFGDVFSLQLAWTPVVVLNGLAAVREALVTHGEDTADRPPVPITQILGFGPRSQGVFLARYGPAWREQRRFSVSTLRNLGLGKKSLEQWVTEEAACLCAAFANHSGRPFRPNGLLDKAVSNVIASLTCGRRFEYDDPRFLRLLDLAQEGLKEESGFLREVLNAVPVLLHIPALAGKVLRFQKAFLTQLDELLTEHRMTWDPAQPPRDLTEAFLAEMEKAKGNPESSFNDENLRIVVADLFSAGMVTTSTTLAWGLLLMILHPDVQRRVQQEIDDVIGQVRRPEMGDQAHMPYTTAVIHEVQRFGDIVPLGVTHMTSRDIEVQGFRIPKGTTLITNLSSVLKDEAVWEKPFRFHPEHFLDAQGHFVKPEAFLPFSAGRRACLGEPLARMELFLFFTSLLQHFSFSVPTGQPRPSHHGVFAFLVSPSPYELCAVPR

For the molecule `CC(C)COc1ncc(-c2cn(C)c3cc(C(=O)NS(C)(=O)=O)c(F)cc23)cc1Cl`, the “inhibition (INH)” value at Cytochrome P450 2C8 [1], against Cytochrome P450 2B6 [5], on Cytochrome P450 2D6 [11], at Cytochrome P450 2C9 [13], against Cytochrome P450 2C19 [22] and at Cytochrome P450 3A4 [23] was “Not Active” in each case. Further, the remaining at 10 min, 0.5 µM in [2] amounted to 100%; in [17], 85%; in [18], 100%. Also, the figures for the Papp in [3] and in data set [9] were 49.5 ×10⁻⁶ cm/s and 20.5 ×10⁻⁶ cm/s, respectively. Also, the TDI result at Cytochrome P450 2C8 [4], on Cytochrome P450 2D6 [6], at Cytochrome P450 3A4 [12], at Cytochrome P450 2C19 [15], on Cytochrome P450 2C9 [16] and at Cytochrome P450 2B6 [21] was “Not Active” each time. The Papp A→B in data set [7] is 2 ×10⁻⁶ cm/s. The fraction unbound in data set [8] came to 0.002; in data set [20] it was 0.001. Moreover, the half-maximal inhibitory concentration (IC50) in [10] turned out to be 1.1 nM. In data set [14], the efflux ratio stood at 3.4. For the same molecule, the Papp B→A in [19] is 6.7 ×10⁻⁶ cm/s.

As to `Cn1nc(-c2ccc(C(F)(F)F)cc2)c2cc(F)c(C(=O)NS(=O)(=O)C3CC3)cc21`, the “inhibition (INH)” value on Cytochrome P450 2C8 [1], against Cytochrome P450 2B6 [5], at Cytochrome P450 2D6 [11], against Cytochrome P450 2C9 [13], at Cytochrome P450 2C19 [22] and against Cytochrome P450 3A4 [23] was “Not Active” in each case. Further, the remaining at 10 min, 0.5 µM in data set [2], in data set [17] and in [18] was 100% throughout. The Papp in data set [3] was found to be 59.2 ×10⁻⁶ cm/s; in [9], 10.2 ×10⁻⁶ cm/s. The TDI entry on Cytochrome P450 2C8 [4], at Cytochrome P450 2D6 [6], on Cytochrome P450 3A4 [12], on Cytochrome P450 2C19 [15], on Cytochrome P450 2C9 [16] and at Cytochrome P450 2B6 [21] was “Not Active” throughout. The Papp A→B in data set [7] was less than 1.5 ×10⁻⁶ cm/s. In [8], this molecule yielded a free fraction (fraction unbound) of 0.008. The half-maximal inhibitory concentration (IC50) in [10] was 21 nM; in data set [24] it was 13 nM; in data set [25] it was 6400 nM. Moreover, in data set [14], the efflux ratio is greater than 21. In addition, the Papp B→A in [19] was 31.2 ×10⁻⁶ cm/s.

Turning to `CC(C)Cc1ccc(-c2cn(C)c3cc(C(=O)NS(C)(=O)=O)ccc23)cc1`, the “inhibition (INH)” value against Cytochrome P450 2C8 [1], on Cytochrome P450 2B6 [5], at Cytochrome P450 2D6 [11], on Cytochrome P450 2C9 [13], at Cytochrome P450 2C19 [22] and at Cytochrome P450 3A4 [23] was “Not Active” each time. In addition, the remaining at 10 min, 0.5 µM in data set [2] turned out to be 100%; in data set [17] it was 94%; in data set [18], 100%. Also, the TDI entry at Cytochrome P450 2C8 [4], on Cytochrome P450 2D6 [6], at Cytochrome P450 3A4 [12], on Cytochrome P450 2C19 [15], at Cytochrome P450 2C9 [16] and on Cytochrome P450 2B6 [21] was “Not Active” in each case. The Papp A→B in [7] is less than 1.5 ×10⁻⁶ cm/s. For the same molecule, the results for the fraction unbound in [8] and in [20] were 0.003 and 0.001, respectively. Further, the half-inhibitory concentration (IC50) was 23 nM in data set [10] and greater than 30000 nM in data set [25]. Moreover, in data set [14], the efflux ratio is greater than 6.2. For the same molecule, in data set [19], the Papp B→A was 7.8 ×10⁻⁶ cm/s.
